Experimental data taken from patent US7034005B2, “Use of agent for suppressing infection and proliferation of human immunodeficiency syndrome virus” (The Kitasato Institute, priority 2002, dated 2006).

Experiments:
[1] = system: HIV-1BAL strain in GM type macrophage (GM-MΦ) derived from human monocytes; test: Proliferation of HIV-1 in GM-MΦ: p24 protein in culture supernatant by sandwich ELISA; assay type: cell-based; details: 30 μM, HIV-1BAL, all assay points up to 14 days, similar to DMSO control (FIG. 14)
Procedure: (§1) Macrophages derived from monocytes were prepared by culturing the recovered monocytes in the presence of M-CSF (macrophage colony-stimulating factor) (10^4 U/ml, provided by Morinaga Milk Co.), granulocytes and granulocyte-macrophage colony-stimulating factor, GM-CSF) (500 U/ml, provided by Japan Scheling Plough Co., Osaka, or purchased from R & S Genzyme-TECHNE Inc.) with RPMI1640 medium added with FCS10% (Nissui Seiyaku Co., Tokyo) for 7–8 days.
(§2) The macrophage prepared by differential induction of M-CSF from human monocytes is designated as M type macrophage (M type MΦ or M-MΦ) and the macrophage prepared by differential induction of GM-CSF from human monocytes is designated as GM type macrophage (GM type MΦ or GM-MΦ) Further, alveolar macrophage (alveolar MΦ or A-MΦ) was prepared as follows. Cells in the alveolar lavage liquid obtained from the alveolar lavage of healthy volunteers were recovered, suspended and adhered to plastics, then the non-adhered cells were washed out and the remained adhered cells were designated as the alveolar MΦ.
(§3) Infection of HIV-1 to macrophage was performed as follows. Macrophage directed viral strains, HIV-1JR-FL and HIV-1BAL, were infected for 2 hours in contact with M-MΦ, GM-MΦ and A-MΦ (adjusted to 2.5×10^5/well, Flacon No3043: Becton Dickinson Labware, Inc. U.S.)at low concentration (p24 antigen titer 50 ng/ml, TCID50=3000/ml virus to final concentration at 100 pg/ml), and non-adsorbed virus to the macrophage was washed out, and cultured with adding fresh medium. In case of the medium with M-MΦ, M-CSF was added (10^4 U/ml), and that of the medium with GM-MΦ, GM-CSF was added (500 U/ml).
(§4) Proliferation of virus was examined with the released viral particles in the culture supernatant after the infection by the sandwich ELISA using two types of anti-p24 antibody (Nu24 and 10B5^13). The following JAM62 and JAM65 were used as LTR (HIV long terminal repeat)-gap gene primer. The following JAM63 and JAM 64 were used as the internal primer for the nested PCR. • JAM62: • 5′-[…]-3′ (SEQ ID NO: 1) • JAM65: • 5′-[…]-3′ (SEQ ID NO: 2) • JAM63: • 5′-GTGTOACTCTGGTAACTAGAGATCC-3′ (SEQ ID NO: 3) • JAM64: • 5′-[…]-3′ (SEQ ID NO: 4) (1-4) Assay of Expression of Tyrosine Kinase Hck Protein and Transcription Factor C/EBPβ Protein
(§5) In order to show growth suppression effect of the present invention, among macrolide derivatives, EM, EM201, EM202, EM703, CAM, EM722, EM730, EM732, EM736, EM734, EM735, EM747, EM748, EM743, EM746, EM750 or EM751 was dissolved in DMSO with each 100 mM concentration, and used in dilution with the medium thereafter. A control group was M-MΦ treated only with DMSO used for dissolving macrolide derivatives.
(§6) M-MΦ and GM-M Φ were subjected to contact infection with HIV-1BAL strain for 2 hours, added 30 μM of EM, EM201, EM202, EM703, CAM,EM722, EM730, EM732, EM736, EM734, EM735, EM747, EM748, EM743, EM746, EM750 or EM751, incubated for 14 days and amount of p24 protein in the cultured supernatant was assayed in the time-dependent manner.

p38MAPK = test: Tyrosine phosphorylation (activation) of p38MAPK in HIV-1 infected M-MΦ by Western blotting; assay type: cell-based, human; details: 30 μM, day 2 of culture, HIV-1BAL infected M-MΦ, compared with DMSO (FIG. 19(A))
Procedure: (§7) P38MAPK and ERK1/2 activation were determined using P38MAPK antibody, anti-ERK1/2 antibody, anti-tyrosine phosphorylation P38MAPK antibody and anti-tyrosine phosphorylation ERK1/2 antibody (New England Biolabs, Inc. U.S.), and phosphorylation reaction of these molecules was determined by Western blotting.
Thirty μM of EM, EM201, EM202, EM703 or CAM were added to M-MΦ infected with HIV-1BAL strain, tyrosine phosphorylation of p38MAPK was detected on day 2 of the culture by Western blotting. […] In any groups, total amount of p38MAPK (total sum of phosphorylated and non-phosphorylated p38MARK) was equal.

[2] = system: HIV-1BAL strain in M type macrophage (M-MΦ) derived from human monocytes; test: Proliferation of HIV-1 in M-MΦ: p24 protein in culture supernatant by sandwich ELISA; assay type: cell-based; details: for suppression of viral generation (p24 in culture supernatant) in M-MΦ: 30 μM, HIV-1BAL, 14 days of culture, compared with DMSO control (FIG. 13); for viral proliferation at 300 μM in M-MΦ: also observed in DMSO control, ascribed to cytotoxicity of DMSO; for concentration dependence of suppressive action on HIV-1BAL in M-MΦ: various concentrations (FIG. 16); for p24 protein in culture supernatant of oligonucleotide pretreated M-MΦ: day 4, 7 and 10 after HIV-1BAL infection, compared with lipofectin control (L) (FIG. 10)
Procedure: as §1, §2, §3, §4, §5, §6

ERK1/2 = test: Tyrosine phosphorylation (activation) of ERK1/2 in HIV-1 infected M-MΦ by Western blotting; assay type: cell-based, human; details: 30 μM, HIV-1BAL infected M-MΦ, compared with DMSO (FIG. 19(B))
Procedure: as §7
In any groups, total amount of ERK1/2 (total sum of phosphorylated and non-phosphorylated p38MARK) was equal [refer to FIG. 19(B)].

[3] = system: HIV-1BAL strain infected M-MΦ; test: Cytopathy (MGC formation) of HIV-1 infected M-MΦ; assay type: cell-based, human; details: 30 μM, HIV-1BAL (FIG. 17)
Procedure: Formation of cell cluster and cell fusion was observed from the 2nd day of the incubation only in virus producing M-MΦ and formation of multinucleatic giant cells were recognized from the culture day 4–7 [refer to FIG. 2(A)]. On the other hand, in GM-MΦ without generation of virus, nomorphological changes were observed [refer to FIG. 2(B)].
M-MΦ was subjected to contact infection with HIV-1BAL strain for 2 hours, added 30 μM of EM, EM201, EM202, EM703 or CAM, incubated and observed the cell morphology.

[4] = system: tyrosine kinase Hck protein; test: Expression of tyrosine kinase Hck protein in M-MΦ by Western blotting; assay type: cell-based, human; details: for expression of tyrosine kinase Hck protein in HIV-1 infected M-MΦ: 30 μM, compared with DMSO control (FIG. 18); for expression of tyrosine kinase Hck protein in HIV-1 infected M-MΦ / expression of tyrosine kinase Hck protein in oligonucleotide pretreated M-MΦ after infection: day 2 after HIV-1BAL infection; for expression of tyrosine kinase Hck protein in oligonucleotide treated M-MΦ before infection: probe 2 μM for 24 hours, further 24 hours incubation, compared with lipofectin control (L) (FIG. 9)
Source text: Expression of tyrosine kinase Hck protein and transcription factor C/EBPβ protein in macrophage was examined after solubilizing the macrophage in SDS-PAGE sample buffer, performing 10% SDS-polyacrylamide electrophoresis, transferring the protein on the gel to immobilon P membrane (Millipore Inc. U.S.) and checking antibodies against these proteins by Western blotting. Antibody to tyrosine kinase Hck protein (N-30) and antibody to C/EBPβ (C-19) were purchased from Santacluse Inc. (U.S.). Western blotting was detected by Amersham ELC Regent (Amersham International plc, Buckinghamshire, UK). Strength of bands was expressed by PSL (photostimulating luminescence) value (A/mm^2).
These probes were dissolved in the serum free RPMI1640 medium, in which lipofectin (Life Technology Inc., U.S.) was dissolved at 5 μM concentration, at room temperature for 30 minutes, added with RPMI1640 medium, which contains 10% FCS, to the macrophage (final concentration 2 μM) and incubated at 37° C. for 24 hours. Thereafter, cells were washed with the medium, added the RPMI1640 medium containing 10% FCS without oligonucleotide, further cultured for 24 hours, and then infected with HIV-1.
Consequently, M-MΦ was subjected to contact infection with HIV-1BAL strain for 2 hours, added 30 μM of EM, EM201, EM202, EM703 or CAM, incubated and expression of tyrosine kinase Hck protein was observed on day 2 after the infection by Western blotting.

11-(1′-hydroxypropyl)-3-[2,6-dideoxy-3-C-methyl-α-L-ribo-hexopyranosyl]oxy]-5-[(3,4,6-trideoxy-3-(dimethylamino)-β-D-xylo-hexopyranosyl)oxy]-2,4,6,8,11,14-hexamethyl-10,13,15-tri-oxatricyclo[9.2.1.1.^9.6]-pentadecane-1-one [EM201]
viral generation in GM-MΦ [1]: almost no viral generation was recognized
tyrosine phosphorylation of p38MAPK (p38MAPK): significantly decreased
proliferation of virus in M-MΦ at 3 μM [2]: inhibited almost completely the proliferation of virus
suppression of viral generation (p24 in culture supernatant) in M-MΦ [2]: almost no p24 was detected
viral proliferation at 300 μM in M-MΦ [2]: viral proliferation at 300 μM was observed
concentration dependence of suppressive action on HIV-1BAL in M-MΦ [2]: concentration dependent manner
tyrosine phosphorylation of ERK1/2 (ERK1/2): promotion of tyrosine phosphorylation of ERK1/2 was recognized
cytopathic effect (MGC formation) in HIV-1 infected M-MΦ [3]: no cytopathic effect such as MCG formation was observed
expression of tyrosine kinase Hck protein in HIV-1 infected M-MΦ [4]: strongly suppressed

Hck-NS: Phosphorothioate-modified non-sense oligonucleotide probe, 5′-CCATATTTCCCGCTCOCGTG-3′ (SEQ ID NO: 7) (CCATATTTCCCGCTCGCGTG; all phosphorothioate, sugars by position and methylation of C not given here)
p24 protein in culture supernatant of oligonucleotide pretreated M-MΦ [2]: time-dependent increase in p24 protein was recognized
expression of tyrosine kinase Hck protein in oligonucleotide pretreated M-MΦ after infection [4]: no suppression of expression of tyrosine kinase Hck protein was recognized
expression of tyrosine kinase Hck protein in oligonucleotide treated M-MΦ before infection [4]: suppression of expression of tyrosine kinase Hck protein was recognized

CCC(O)C(C)(O)C1OC(=O)C(C)C(OC2CC(C)(OC)C(O)C(C)O2)C(C)C(OC2OC(C)CC(NC)C2O)C2(C)CC(C)=C(O2)C1C (stereo not shown) [EM703, de(3′-N-methyl)-8,9-anhydro-pseudoerythromycin A 6,9-hemiketal]
viral generation in GM-MΦ [1]: almost no viral generation was recognized
tyrosine phosphorylation of p38MAPK (p38MAPK): significantly decreased
proliferation of virus in M-MΦ at 3 μM [2]: inhibited almost completely the proliferation of virus
suppression of viral generation (p24 in culture supernatant) in M-MΦ [2]: almost no p24 was detected
viral proliferation at 300 μM in M-MΦ [2]: viral proliferation at 300 μM was observed
concentration dependence of suppressive action on HIV-1BAL in M-MΦ [2]: concentration dependent manner
tyrosine phosphorylation of ERK1/2 (ERK1/2): promotion of tyrosine phosphorylation of ERK1/2 was recognized
cytopathic effect (MGC formation) in HIV-1 infected M-MΦ [3]: no cytopathic effect such as MCG formation was observed
expression of tyrosine kinase Hck protein in HIV-1 infected M-MΦ [4]: strongly suppressed

CCC1OC(=O)C(C)C(O[C@H]2C[C@@](C)(OC)[C@@H](O)[C@H](C)O2)C(C)C(O[C@@H]2O[C@H](C)C[C@H](N(C)C)[C@H]2O)C(C)(O)CC(C)C(=O)C(C)C(O)C1(C)O (stereo partly shown) [EM, reference compound]
viral generation in GM-MΦ [1]: almost no viral generation was recognized
tyrosine phosphorylation of p38MAPK (p38MAPK): recognized to decrease, though not so strong
suppression of viral generation (p24 in culture supernatant) in M-MΦ [2]: suppression of viral generation was recognized, though not so strong
viral proliferation at 300 μM in M-MΦ [2]: viral proliferation at 300 μM was observed
concentration dependence of suppressive action on HIV-1BAL in M-MΦ [2]: exhibited suppression of viral production depending upon drug concentration
tyrosine phosphorylation of ERK1/2 (ERK1/2): weakly recognized as same in the control group
cytopathic effect (MGC formation) in HIV-1 infected M-MΦ [3]: formation of MGC was slightly recognized
expression of tyrosine kinase Hck protein in HIV-1 infected M-MΦ [4]: the suppression of tyrosine kinase Hck protein was observed, though not so strong

CC[C@H]1OC(=O)[C@H](C)[C@@H](O[C@H]2C[C@@](C)(OC)[C@@H](O)[C@H](C)O2)[C@H](C)[C@@H](O[C@@H]2O[C@H](C)C[C@H](N(C)C)[C@H]2O)[C@@]2(C)C[C@@H](C)[C@@]3(O[C@@]1(C)[C@H](O)[C@H]3C)O2 [EM202, 6,9,12-Anhydroerythromycin A]
viral generation in GM-MΦ [1]: almost no viral generation was recognized
tyrosine phosphorylation of p38MAPK (p38MAPK): recognized to decrease, though not so strong
suppression of viral generation (p24 in culture supernatant) in M-MΦ [2]: suppression of viral generation was recognized, though not so strong
viral proliferation at 300 μM in M-MΦ [2]: viral proliferation at 300 μM was observed
concentration dependence of suppressive action on HIV-1BAL in M-MΦ [2]: exhibited suppression of viral production depending upon drug concentration
tyrosine phosphorylation of ERK1/2 (ERK1/2): weakly recognized as same in the control group
cytopathic effect (MGC formation) in HIV-1 infected M-MΦ [3]: formation of MGC was slightly recognized
expression of tyrosine kinase Hck protein in HIV-1 infected M-MΦ [4]: the suppression of tyrosine kinase Hck protein was observed, though not so strong

Hck-S: Phosphorothioate-modified sense oligonucleotide probe of Hck, 5′-GCCAGOATOGGGTCGATCAA-3′ (SEQ ID NO: 6)
p24 protein in culture supernatant of oligonucleotide pretreated M-MΦ [2]: time-dependent increase in p24 protein was recognized
expression of tyrosine kinase Hck protein in oligonucleotide pretreated M-MΦ after infection [4]: no suppression of expression of tyrosine kinase Hck protein was recognized
expression of tyrosine kinase Hck protein in oligonucleotide treated M-MΦ before infection [4]: suppression of expression of tyrosine kinase Hck protein was recognized
